This is an account of results in patent US11560373B2, “Compounds and their use as PDE4 activators” (Mironid Limited, priority 2018, dated 2023).

One test has as its target T1, PDE4B2 (Homo sapiens, UniProt Q07343).
T1 construct: the full length human PDE4B2 short isoform; made in house
Description: PDE assay, [3H]cAMP hydrolysis by HEK-PDE4B2 cell lysate cytosol fraction (short form). It counts as biochemical. The note with it: mean % increase in counts over basal activity. As to the method:
(§1) HEK 293 cells were transfected with pDEST™ PDE4 expression vectors using Lipofectamine LTX/Plus reagent (Invitrogen) as outlined by the manufacturer and clonal isolates expanded to obtain cell lines that stably expressed the full-length human PDE4D5, PDE4B1 and PDE4A4 long isoforms and the full length human PDE4B2 short isoform. These were called the HEK-PDE4D5, HEK-PDE4B1, HEK-PDE4A4 and HEK-PDE4B2 cell lines, respectively.
(§2) HEK-PDE4D5 cells were seeded out in 100 mm plates and incubated at 37° C. in an atmosphere of 5% CO2, 95% air. Cell lysates were prepared using KHEM buffer [50 mM KCl, 10 mM EGTA, 50 mM HEPES (pH 7.2), 1.92 mM MgCl2].
(§3) To prepare the cell lysates, the 100 mm plates containing the cells were placed on ice and washed with ice-cold PBS (phosphate buffered saline, pH 7.4). KHEM buffer (500 μl) was added to the cells. Cells were then scraped off the plate and triturated using a needle (BD Microlance™ 0.8, 40 mm). The lysed cells were then centrifuged at 2000 rpm for 10 minutes to remove cell debris and the supernatant (cell lysate containing recombinant PDE4D5) was transferred to a fresh tube and kept on ice.
(§4) The cell lysate containing recombinant PDE4D5 was transferred into a centrifuge tube and placed into an ultracentrifuge (BECKMAN COULTER) and spun at high speed (100,000 g) for 30 minutes at 4° C. The cytosol fraction was then collected and its protein amount determined using a BCA protein assay.
(§5) PDE assays were performed in thin walled V-bottomed 96-well plates. The assays were performed at a final concentration of 10 mM Tris/5 mM MgCl2 plus PDE4D5 cell lysate cytosol fraction, containing over-expressed PDE4D5, with and without test compound. The lysate/compound mix were incubated together for 15 min at room temperature on an orbital shaker prior to addition of [^3H] cAMP (final concentration 1 μM [^3H] cAMP; Perkin Elmer) to a final volume of 50 μl per reaction. The reactions were then incubated for 10 minutes at 30° C., terminated by heating for 2 min at 95° C. and allowed to cool. Snake venom (12.5 μl of 1 mg/ml; Crotalus atrox, Sigma) was then added and the plates were agitated and incubated for a further 15 minutes at 30° C. Dowex ion exchange resin (Sigma, chloride form, 200-400 mesh; 200 μl; prepared as a 1:1 Dowex: water stock, thoroughly re-suspended and diluted 2:1 with ethanol) was then added to each well and the plates incubated for 15 min at room temperature on an orbital shaker ensuring sufficient agitation for resin suspension (550 RPM). The reaction mixture was then transferred to a 96 well filter plate (Millipore; […] pore size) and filtered into a receiving 96-well plate to remove the dowex suspension. 30 μL of the filtered solution was then transferred to the wells of an Opti-plate (Perkin Elmer) 96 well assay plate and 120 μl of Microscint 40 scintillation fluid was added. The plate was then placed on an orbital shaker for 10 min at high speed (900 RPM) to mix the sample with scintillation fluid prior to quantitation using a plate based scintillation counter (Top-Count).
(§6) The % increase in counts in the presence of test compound at a particular concentration indicates the % increase in enzyme activity at that concentration.

Another test concerns the target T2, PDE4D5 (Homo sapiens, UniProt Q08499).
T2 construct: stably expressed the full-length human PDE4D5, PDE4B1 and PDE4A4 long isoforms; made in house
Description: PDE assay, [3H]cAMP hydrolysis by HEK-PDE4D5 cell lysate cytosol fraction. It counts as biochemical. The conditions noted are these: 30 μM; mean % increase in counts over basal activity. As for the experimental part: as §1, §2, §3, §4, §5, §6

Another test concerns the target T3, PDE4A4 (Homo sapiens, UniProt P27815).
T3 construct: stably expressed the full-length human PDE4D5, PDE4B1 and PDE4A4 long isoforms; made in house
Put plainly: PDE assay, [3H]cAMP hydrolysis by HEK-PDE4A4 cell lysate cytosol fraction. The conditions noted are these: mean % increase in counts over basal activity. Type of test: biochemical.

Test [1] deals with MDCK cells. Description: Reduction of intracellular cAMP levels in forskolin stimulated MDCK cells. It counts as cell-based, canine. The conditions noted are these: compound 40 min prior to forskolin (1 μM) for 20 min. As for the experimental part: MDCK cells were seeded at 100,000 cells per well, and left to adhere overnight. The cells were then treated with the test compound for 40 minutes, prior to stimulation with forskolin (1 μM, Sigma) for 20 minutes. Media was aspirated, and hydrochloric acid (0.1 M) was added to lyse the cells. The cAMP assay (Enzo Life Sciences) was performed according to the manufacturer's instructions.

Test [2] concerns MDCK cells. Put plainly: Inhibition of in vitro cyst formation in 3D culture of MDCK cells. Type of test: cell-based, canine. The conditions noted are these: 300 nM prostaglandin E2, 10 days; % Cyst Volume compared to vehicle. From the text:
In this study, the well-established three-dimensional (3D) MDCK cell model is used to investigate the effects of PDE4 long form activators on the formation of kidney cysts and evaluate their potential in the treatment of polycystic kidney diseases. 3D cysts are generated based on the method of Mao et al. (Mao, Z., Streets, A. J., Ong, A. C. M. Am. J. Physiol. Renal Physiol. 300(6): F1375-F1384, 2011), with some modifications.
Type 1 collagen (Invitrogen) is first prepared on ice by neutralising an acidic stock solution (3 mg/ml) with 17 mM NaOH and diluting it to 1 mg/ml with DMEM, supplemented with 2% (v/v) FBS, 2 mM L-glutamine, 1,000 U penicillin and 1,000 μg streptomycin (DMEM-2% FBS). […]
Phase-contrast images are obtained on the Motic microscope (×4 magnification). 8 images are taken per condition and the cyst diameter measured (up to 150 cyst measurements per well). Cyst spheroid volume is calculated using the formula 4/3πr^3 where r is the radius of the spheroid. A mean cyst volume is then calculated per well. The mean cyst volume and standard deviation between the duplicate wells is then calculated and expressed as a % Cyst Volume compared to the vehicle only (DMSO+300 nM PGE2) control wells. […]

In the next test the target is T4, PDE4B1 (Homo sapiens, UniProt Q07343).
T4 construct: stably expressed the full-length human PDE4D5, PDE4B1 and PDE4A4 long isoforms; made in house
T4 sequence (Q07343 whole entry, canonical isoform): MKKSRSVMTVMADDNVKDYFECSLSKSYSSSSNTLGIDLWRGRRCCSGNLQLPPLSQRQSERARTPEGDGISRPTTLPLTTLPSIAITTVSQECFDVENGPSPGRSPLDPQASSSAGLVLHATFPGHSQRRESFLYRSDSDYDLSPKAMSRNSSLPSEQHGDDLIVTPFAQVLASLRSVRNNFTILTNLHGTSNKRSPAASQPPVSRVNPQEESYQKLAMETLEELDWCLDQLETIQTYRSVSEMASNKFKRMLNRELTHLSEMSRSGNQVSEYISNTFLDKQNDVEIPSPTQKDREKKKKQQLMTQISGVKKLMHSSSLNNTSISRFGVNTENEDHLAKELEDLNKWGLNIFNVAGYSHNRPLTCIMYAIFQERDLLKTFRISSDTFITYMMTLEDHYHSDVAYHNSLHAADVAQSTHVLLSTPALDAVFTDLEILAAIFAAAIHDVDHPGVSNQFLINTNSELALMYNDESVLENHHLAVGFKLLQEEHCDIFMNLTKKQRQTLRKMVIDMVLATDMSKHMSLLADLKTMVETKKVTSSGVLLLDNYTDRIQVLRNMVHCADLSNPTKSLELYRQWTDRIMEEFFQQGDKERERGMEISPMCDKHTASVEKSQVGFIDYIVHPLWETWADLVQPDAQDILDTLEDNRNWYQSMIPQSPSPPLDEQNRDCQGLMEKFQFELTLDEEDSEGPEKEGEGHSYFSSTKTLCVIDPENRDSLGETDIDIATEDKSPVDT
Description: PDE assay, [3H]cAMP hydrolysis by HEK-PDE4B1 cell lysate cytosol fraction. It counts as biochemical. The note with it: mean % increase in counts over basal activity.

T2 sequence (Q08499 1-745 isoform Q08499-6): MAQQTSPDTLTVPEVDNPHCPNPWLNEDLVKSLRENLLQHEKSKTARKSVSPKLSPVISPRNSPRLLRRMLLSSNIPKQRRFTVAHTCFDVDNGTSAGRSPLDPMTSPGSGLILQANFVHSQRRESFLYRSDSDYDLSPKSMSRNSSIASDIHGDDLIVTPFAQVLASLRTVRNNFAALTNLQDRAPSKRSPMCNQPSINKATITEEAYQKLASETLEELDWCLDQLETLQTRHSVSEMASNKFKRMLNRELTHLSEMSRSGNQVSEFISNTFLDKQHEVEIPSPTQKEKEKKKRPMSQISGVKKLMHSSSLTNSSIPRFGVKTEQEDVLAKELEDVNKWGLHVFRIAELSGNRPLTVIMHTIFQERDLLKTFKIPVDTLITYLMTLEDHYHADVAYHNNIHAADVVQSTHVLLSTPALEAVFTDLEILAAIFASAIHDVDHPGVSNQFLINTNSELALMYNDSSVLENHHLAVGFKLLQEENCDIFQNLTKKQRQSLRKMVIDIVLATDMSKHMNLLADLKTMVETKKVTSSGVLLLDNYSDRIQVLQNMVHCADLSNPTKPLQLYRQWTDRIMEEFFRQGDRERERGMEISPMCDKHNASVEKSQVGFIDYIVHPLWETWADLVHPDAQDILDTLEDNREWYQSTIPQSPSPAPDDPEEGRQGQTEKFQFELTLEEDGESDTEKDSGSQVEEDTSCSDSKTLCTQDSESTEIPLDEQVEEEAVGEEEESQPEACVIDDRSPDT
T1 sequence (Q07343 1-564 isoform Q07343-2): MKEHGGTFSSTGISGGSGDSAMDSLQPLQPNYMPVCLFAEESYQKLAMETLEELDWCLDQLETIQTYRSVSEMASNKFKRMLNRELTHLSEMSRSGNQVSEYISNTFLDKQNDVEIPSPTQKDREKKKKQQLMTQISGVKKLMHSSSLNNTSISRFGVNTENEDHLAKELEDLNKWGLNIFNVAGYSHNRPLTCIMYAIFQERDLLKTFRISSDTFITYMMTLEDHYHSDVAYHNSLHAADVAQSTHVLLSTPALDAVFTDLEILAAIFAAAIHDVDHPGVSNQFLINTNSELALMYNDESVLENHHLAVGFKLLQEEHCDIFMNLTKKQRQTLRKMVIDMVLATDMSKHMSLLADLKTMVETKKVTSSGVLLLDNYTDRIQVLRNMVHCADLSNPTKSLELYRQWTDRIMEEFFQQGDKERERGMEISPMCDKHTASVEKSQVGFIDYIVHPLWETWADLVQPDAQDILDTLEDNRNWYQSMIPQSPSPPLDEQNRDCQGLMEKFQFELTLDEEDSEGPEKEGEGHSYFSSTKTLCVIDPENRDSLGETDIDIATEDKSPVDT
T3 sequence (P27815 whole entry, canonical isoform): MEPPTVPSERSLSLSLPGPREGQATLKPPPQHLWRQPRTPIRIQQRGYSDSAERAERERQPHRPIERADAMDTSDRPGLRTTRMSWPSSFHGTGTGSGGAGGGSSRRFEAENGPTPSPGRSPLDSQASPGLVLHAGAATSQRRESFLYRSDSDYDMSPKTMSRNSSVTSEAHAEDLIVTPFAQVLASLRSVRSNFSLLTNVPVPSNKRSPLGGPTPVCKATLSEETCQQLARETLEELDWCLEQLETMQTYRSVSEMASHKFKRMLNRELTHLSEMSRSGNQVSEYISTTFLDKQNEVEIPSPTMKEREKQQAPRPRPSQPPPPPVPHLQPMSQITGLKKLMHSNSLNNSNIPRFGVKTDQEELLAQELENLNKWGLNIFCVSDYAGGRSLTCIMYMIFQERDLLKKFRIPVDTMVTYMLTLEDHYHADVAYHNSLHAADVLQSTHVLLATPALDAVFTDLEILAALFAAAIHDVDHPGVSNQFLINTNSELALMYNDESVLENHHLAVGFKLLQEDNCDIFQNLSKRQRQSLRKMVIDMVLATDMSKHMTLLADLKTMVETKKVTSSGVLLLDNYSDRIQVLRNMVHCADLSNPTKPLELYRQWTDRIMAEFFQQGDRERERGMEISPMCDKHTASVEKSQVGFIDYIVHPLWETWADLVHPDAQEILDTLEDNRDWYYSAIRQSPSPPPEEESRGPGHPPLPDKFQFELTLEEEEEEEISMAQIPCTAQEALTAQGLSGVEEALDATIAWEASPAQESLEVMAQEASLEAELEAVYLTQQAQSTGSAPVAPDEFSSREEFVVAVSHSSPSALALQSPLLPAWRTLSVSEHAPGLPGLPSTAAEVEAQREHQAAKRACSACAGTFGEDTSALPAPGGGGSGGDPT

In the case of `CCn1nc(-c2ccc(Cl)c(OC)c2)nc1CC(=O)NCc1cc(Cl)cc(Cl)c1` [Example 29, 2-[3-(4-Chloro-3-methoxyphenyl)-1-ethyl-1H-1,2,4-triazol-5-yl]-N-[(3,5-dichlorophenyl)methyl]acetamide], the “% increase in PDE4B2 activity at 30 μM” value on PDE4B2 is listed as 3.4%. Further, the activation at 30 µM at PDE4D5 was determined as 104%.

On to `CCn1nc(-c2ccc(Cl)c(OC(C)C)c2)nc1CC(=O)NCc1cc(Cl)cc(Cl)c1` [Example 34, 2-[3-(4-Chloro-3-isopropyloxyphenyl)-1-ethyl-1H-1,2,4-triazol-5-yl]-N-[(3,5-dichlorophenyl)methyl]acetamide], for which the “% increase in PDE4B2 activity at 30 μM” value on PDE4B2 is −4.4%. Also, the “% increase in PDE4A4 activity at 30 μM” value on PDE4A4 came to 75.5%. The activation at 30 µM at PDE4D5 is 108%.

On to `COCCn1nc(-c2ccc(Cl)c(F)c2)nc1CC(=O)NCc1cc(Cl)cc(Cl)c1` [Example 22, 2-[3-(4-Chloro-3-fluorophenyl)-1-(2-methoxyethyl)-1H-1,2,4-triazol-5-yl]-N-[(3,5-dichlorophenyl)methyl]acetamide], for which the “% increase in PDE4B2 activity at 30 μM” value on PDE4B2 is −2.9%. Further, the “% increase in PDE4A4 activity at 30 μM” value at PDE4A4 was 92.5%. The compound further displayed an activation at 30 µM at PDE4D5 of 99.9%.

On to `CCn1nc(-c2ccc(Cl)c(F)c2)nc1CC(=O)NCc1cc(C)nc(C)c1` [Example 3, 2-[3-(4-Chloro-3-fluorophenyl)-1-ethyl-1H-1,2,4-triazol-5-yl]-N-((2,6-dimethylpyridin-4-yl)methyl)acetamide], for which, on PDE4B2, the “% increase in PDE4B2 activity at 30 μM” value is reported as −10.9%. Further, in the test on MDCK cells [1], the “intracellular cAMP levels in MDCK cells (FIG. 2)” value is given as “reduction in intracellular cAMP levels”. In addition, the “cyst formation in 3D culture of MDCK cells (FIG. 3)” value in the test with MDCK cells [2] is given as “inhibition of cyst formation”. This compound displayed an activation at 30 µM at PDE4D5 of 73.2%.

Regarding `CCn1nc(-c2ccc(Cl)c(F)c2)nc1CC(=O)NCc1cccc(OC)c1` [Example 2, 2-[3-(4-Chloro-3-fluorophenyl)-1-ethyl-1H-1,2,4-triazol-5-yl]-N-(3-methoxybenzyl) acetamide], the “% increase in PDE4B1 activity at 30 μM” value at PDE4B1 came to 99.4%.

For the compound `CCn1nc(-c2ccc(Cl)c(OC(C)C)c2)nc1CC(=O)N[C@H]1CCOc2ccc(Cl)cc21` [Example 40, N-[(4S)-6-Chloro-3,4-dihydro-2H-1-benzopyran-4-yl]-2-[3-(4-chloro-3-isopropyloxyphenyl)-1-ethyl-1H-1,2,4-triazol-5-yl]acetamide], on PDE4B2, the “% increase in PDE4B2 activity at 30 μM” value stood at 1.6%. Further, the activation at 30 µM on PDE4D5 turned out to be 48.5%.

Take `CCn1nc(-c2ccc(Cl)c(F)c2)nc1CC(=O)NCc1cccc(F)c1` [Example 1, 2-[3-(4-Chloro-3-fluorophenyl)-1-ethyl-1H-1,2,4-triazol-5-yl]-N-(3-fluorobenzyl) acetamide]: the “% increase in PDE4B1 activity at 30 μM” value at PDE4B1 is 79.1%.

With `CCn1nc(-c2ccc(Cl)c(OCCOC)c2)nc1CC(=O)NCc1cc(Cl)cc(Cl)c1` [Example 33, 2-{3-[4-Chloro-3-(2-methoxyethoxy)phenyl]-1-ethyl-1H-1,2,4-triazol-5-yl}-N-[(3,5-dichlorophenyl)methyl]acetamide], on PDE4B2, the “% increase in PDE4B2 activity at 30 μM” value is reported as −9.4%. The activation at 30 µM on PDE4D5 is 82.3%.
